Data published in US20110217280A1, “METHODS FOR TREATING NEUROPSYCHIATRIC CONDITIONS” (priority 2007, published 2011).

Legend:
[1] = test system: double transgenic GFP-M/DN-DISC1 mice; assay: In vivo monitoring of dendritic spine plasticity by two photon laser scanning microscopy; settings: 1 mg/kg i.p. once per day, imaging P40 to P70
Text: In the following experiment, dendritic spine plasticity is directly monitored in vivo by two photon laser scanning microscopy (TPLSM) in double transgenic GFP-M/DN-DISC1 mice treated with a PAK activator or a placebo. Mice (C57BL/6) expressing GFP in a subset of cortical layer 5 neurons (transgenic line GFP-M described in Feng et al., 2000, Neuron 28:41-51) are crossed with DN-DISC1 C57BL/6 DN-DISC1 mice (Hikida et al (2007), Proc Natl Acad Sci USA, 104(36):14501-14506) to obtain heterozygous transgenic mice, which are then crossed to obtain homozygous double transgenic GFPM/DN-DISC1 mice used in this study.
GFP-M/DN-DISC1 animals aged 28-61 days are anesthetized using avertin ([…]; Sigma, St. Louis, Mo.). The skull is exposed, scrubbed, and cleaned with ethanol. […]
For in vivo two photon imaging, a two-photon laser scanning microscope is used as described in Majewska et al, (2000), Pflügers Arch, 441:398-408. […] Fluorescence is detected using photomultiplier tubes (HC125-02; Hamamatsu, Shizouka, Japan) in whole-field detection mode. The craniotomy over the visual cortex is initially identified under whole-field fluorescence illumination, and areas with superficial dendrites are identified using a 20×, 0.95 numerical aperture lens (IR2; Olympus Optical). […]

PAK1 = PAK1 (Homo sapiens, UniProt Q13153); settings: independent of GTPase activators such as Cdc42 or Rac; cited from earlier work
Sequence of PAK1 (Q13153 whole entry): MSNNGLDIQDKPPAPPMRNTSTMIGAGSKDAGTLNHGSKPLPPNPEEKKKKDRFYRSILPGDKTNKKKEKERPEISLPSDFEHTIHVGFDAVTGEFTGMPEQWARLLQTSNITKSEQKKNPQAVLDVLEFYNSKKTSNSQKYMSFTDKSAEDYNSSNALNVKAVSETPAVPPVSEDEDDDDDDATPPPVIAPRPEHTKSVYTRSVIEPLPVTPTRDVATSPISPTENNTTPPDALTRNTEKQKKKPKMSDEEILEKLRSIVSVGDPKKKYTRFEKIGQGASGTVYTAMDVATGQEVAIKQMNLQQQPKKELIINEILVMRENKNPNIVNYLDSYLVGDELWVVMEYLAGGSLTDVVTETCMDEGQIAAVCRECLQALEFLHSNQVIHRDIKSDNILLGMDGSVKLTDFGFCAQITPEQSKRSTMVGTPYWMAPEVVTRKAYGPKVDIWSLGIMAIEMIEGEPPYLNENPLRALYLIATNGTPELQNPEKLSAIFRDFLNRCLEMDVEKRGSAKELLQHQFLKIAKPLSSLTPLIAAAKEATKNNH

For `CCCCCCCCCCCCCC=CC(O)C(N)CO` (stereo not drawn) [sphingosine, 2-amino-4-octadecene-1,3-diol], the “spine density relative to untreated control animals” value [1] is given as “increased spine density”, the “spine turnover relative to untreated control animals” value [1] is given as “reduced spine turnover” and the “activation of PAK1” value (PAK1) is given as “activate PAK1 independently of GTPase activators”.
